Experimental data: patent US12435089B2, “3-oxadiazolyl substituted pyrazolo[1,5,a]pyrimidines for ROS1, NTRK, and ALK mediated diseases” (TYK MEDICINES, INC., priority 2019, dated 2025)
Where two headings read alike, the source gives them in different places.

Legend:
Ba/F3-CD74-ROS1 = experiment: Inhibition of cell proliferation (CellTiter-Glo), Ba/F3-CD74-ROS1; assay type: cell-based; conditions: 72 hours
Procedure: (§1) The experiment of inhibiting cell proliferation by compounds was carried out in Hefei Zhongkeprecedo Biomedical Technology Co., Ltd. The Ba/F3 engineered cell line stably transfected with different kinase genes was recovered with RPMI 1640 medium (Biological Industries, Israel)+10% fetal bovine serum (Biological Industries, Israel)+1% double antibody (Penicillin Streptomycin solution, Coring, USA) and cultivated two generations. The logarithmic growth phase cell suspension was taken, and 2000 cells/well were inoculated on 96-well white cell culture plate (Corning 3917, NY, USA) with a volume of 95 μL per well. 5 μL of 20×DMSO solution of the compound to be tested was added into the culture plate containing 95 μL of cell suspension. The blank control group was added with corresponding volume of DMSO, mixed well, and incubated in a 5% CO2 incubator at 37° C. for 72 hours. CellTiter-Glo was used to detect cell viability.

Ba/F3-LMNA-NTRK1-G595R = experiment: Inhibition of cell proliferation (CellTiter-Glo), Ba/F3-LMNA-NTRK1-G595R; assay type: cell-based; conditions: 72 hours
Procedure: as §1

Ba/F3-CD74-ROS1-G2032R = experiment: Inhibition of cell proliferation (CellTiter-Glo), Ba/F3-CD74-ROS1-G2032R; assay type: cell-based; conditions: 72 hours;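 note: Ba/F3 cell line expressing the CD74-ROS1 fusion with G2032R mutation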
Procedure: as §1

Ba/F3-LMNA-NTRK1 = experiment: Inhibition of cell proliferation (CellTiter-Glo), Ba/F3-LMNA-NTRK1; assay type: cell-based; conditions: 72 hours
Procedure: as §1

TRKC = TRKC (Homo sapiens (Human), UniProt Q16288); experiment: Radio-tagged HotSpot kinase assay, TRKC; assay type: biochemical; conditions: 33P-ATP, 120 min, room temperature
Chain of TRKC (Q16288 32-839): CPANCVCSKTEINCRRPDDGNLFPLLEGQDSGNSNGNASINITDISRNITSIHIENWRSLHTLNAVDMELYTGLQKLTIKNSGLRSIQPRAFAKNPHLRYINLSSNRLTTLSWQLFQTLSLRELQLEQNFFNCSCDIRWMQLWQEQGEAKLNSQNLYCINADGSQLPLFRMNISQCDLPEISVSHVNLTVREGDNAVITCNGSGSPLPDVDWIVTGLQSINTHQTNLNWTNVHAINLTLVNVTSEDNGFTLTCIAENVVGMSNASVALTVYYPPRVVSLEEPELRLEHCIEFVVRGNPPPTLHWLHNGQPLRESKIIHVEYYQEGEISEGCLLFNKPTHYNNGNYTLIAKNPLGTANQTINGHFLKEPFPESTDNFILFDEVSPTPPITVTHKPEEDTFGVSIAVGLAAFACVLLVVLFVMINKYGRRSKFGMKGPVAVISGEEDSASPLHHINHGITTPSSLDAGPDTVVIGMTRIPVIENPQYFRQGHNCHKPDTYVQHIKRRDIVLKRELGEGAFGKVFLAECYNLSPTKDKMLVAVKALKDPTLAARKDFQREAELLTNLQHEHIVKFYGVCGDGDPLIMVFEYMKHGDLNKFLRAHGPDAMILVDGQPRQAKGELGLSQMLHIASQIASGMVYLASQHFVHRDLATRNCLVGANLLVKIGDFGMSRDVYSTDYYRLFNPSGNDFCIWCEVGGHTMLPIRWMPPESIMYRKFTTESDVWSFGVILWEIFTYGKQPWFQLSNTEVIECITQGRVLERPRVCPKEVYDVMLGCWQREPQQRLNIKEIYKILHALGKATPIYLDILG
Procedure: (§2) Inhibition of protein kinase activity by compounds was carried out on the Radio-tagged HotSpot kinase experimental platform of Reaction Biology Corporation. Fresh reaction solution (20 mM HEPESpH 7.5, 10 mM MgCl2, 1 mM EGTA, 0.02% Brij35, 0.02 mg/ml BSA, 0.1 mM Na3VO4, 2 mM DTT, 1% DMSO) containing corresponding substrates was prepared, cofactor and kinase to be tested were added into the above solution and mixed gently. Echo550 pipetting system was used to add the test compound DMSO solution to each well (the blank control group was added with the corresponding volume of DMSO), then 33P-ATP (with a final specific activity of 0.01 μCi/μL) was added to start the reaction. The reaction solution was incubated at room temperature for 120 minutes.

ROS1 = ROS1 (Homo sapiens (Human), UniProt P08922); experiment: Radio-tagged HotSpot kinase assay, ROS1
Chain of ROS1 (P08922 28-2347): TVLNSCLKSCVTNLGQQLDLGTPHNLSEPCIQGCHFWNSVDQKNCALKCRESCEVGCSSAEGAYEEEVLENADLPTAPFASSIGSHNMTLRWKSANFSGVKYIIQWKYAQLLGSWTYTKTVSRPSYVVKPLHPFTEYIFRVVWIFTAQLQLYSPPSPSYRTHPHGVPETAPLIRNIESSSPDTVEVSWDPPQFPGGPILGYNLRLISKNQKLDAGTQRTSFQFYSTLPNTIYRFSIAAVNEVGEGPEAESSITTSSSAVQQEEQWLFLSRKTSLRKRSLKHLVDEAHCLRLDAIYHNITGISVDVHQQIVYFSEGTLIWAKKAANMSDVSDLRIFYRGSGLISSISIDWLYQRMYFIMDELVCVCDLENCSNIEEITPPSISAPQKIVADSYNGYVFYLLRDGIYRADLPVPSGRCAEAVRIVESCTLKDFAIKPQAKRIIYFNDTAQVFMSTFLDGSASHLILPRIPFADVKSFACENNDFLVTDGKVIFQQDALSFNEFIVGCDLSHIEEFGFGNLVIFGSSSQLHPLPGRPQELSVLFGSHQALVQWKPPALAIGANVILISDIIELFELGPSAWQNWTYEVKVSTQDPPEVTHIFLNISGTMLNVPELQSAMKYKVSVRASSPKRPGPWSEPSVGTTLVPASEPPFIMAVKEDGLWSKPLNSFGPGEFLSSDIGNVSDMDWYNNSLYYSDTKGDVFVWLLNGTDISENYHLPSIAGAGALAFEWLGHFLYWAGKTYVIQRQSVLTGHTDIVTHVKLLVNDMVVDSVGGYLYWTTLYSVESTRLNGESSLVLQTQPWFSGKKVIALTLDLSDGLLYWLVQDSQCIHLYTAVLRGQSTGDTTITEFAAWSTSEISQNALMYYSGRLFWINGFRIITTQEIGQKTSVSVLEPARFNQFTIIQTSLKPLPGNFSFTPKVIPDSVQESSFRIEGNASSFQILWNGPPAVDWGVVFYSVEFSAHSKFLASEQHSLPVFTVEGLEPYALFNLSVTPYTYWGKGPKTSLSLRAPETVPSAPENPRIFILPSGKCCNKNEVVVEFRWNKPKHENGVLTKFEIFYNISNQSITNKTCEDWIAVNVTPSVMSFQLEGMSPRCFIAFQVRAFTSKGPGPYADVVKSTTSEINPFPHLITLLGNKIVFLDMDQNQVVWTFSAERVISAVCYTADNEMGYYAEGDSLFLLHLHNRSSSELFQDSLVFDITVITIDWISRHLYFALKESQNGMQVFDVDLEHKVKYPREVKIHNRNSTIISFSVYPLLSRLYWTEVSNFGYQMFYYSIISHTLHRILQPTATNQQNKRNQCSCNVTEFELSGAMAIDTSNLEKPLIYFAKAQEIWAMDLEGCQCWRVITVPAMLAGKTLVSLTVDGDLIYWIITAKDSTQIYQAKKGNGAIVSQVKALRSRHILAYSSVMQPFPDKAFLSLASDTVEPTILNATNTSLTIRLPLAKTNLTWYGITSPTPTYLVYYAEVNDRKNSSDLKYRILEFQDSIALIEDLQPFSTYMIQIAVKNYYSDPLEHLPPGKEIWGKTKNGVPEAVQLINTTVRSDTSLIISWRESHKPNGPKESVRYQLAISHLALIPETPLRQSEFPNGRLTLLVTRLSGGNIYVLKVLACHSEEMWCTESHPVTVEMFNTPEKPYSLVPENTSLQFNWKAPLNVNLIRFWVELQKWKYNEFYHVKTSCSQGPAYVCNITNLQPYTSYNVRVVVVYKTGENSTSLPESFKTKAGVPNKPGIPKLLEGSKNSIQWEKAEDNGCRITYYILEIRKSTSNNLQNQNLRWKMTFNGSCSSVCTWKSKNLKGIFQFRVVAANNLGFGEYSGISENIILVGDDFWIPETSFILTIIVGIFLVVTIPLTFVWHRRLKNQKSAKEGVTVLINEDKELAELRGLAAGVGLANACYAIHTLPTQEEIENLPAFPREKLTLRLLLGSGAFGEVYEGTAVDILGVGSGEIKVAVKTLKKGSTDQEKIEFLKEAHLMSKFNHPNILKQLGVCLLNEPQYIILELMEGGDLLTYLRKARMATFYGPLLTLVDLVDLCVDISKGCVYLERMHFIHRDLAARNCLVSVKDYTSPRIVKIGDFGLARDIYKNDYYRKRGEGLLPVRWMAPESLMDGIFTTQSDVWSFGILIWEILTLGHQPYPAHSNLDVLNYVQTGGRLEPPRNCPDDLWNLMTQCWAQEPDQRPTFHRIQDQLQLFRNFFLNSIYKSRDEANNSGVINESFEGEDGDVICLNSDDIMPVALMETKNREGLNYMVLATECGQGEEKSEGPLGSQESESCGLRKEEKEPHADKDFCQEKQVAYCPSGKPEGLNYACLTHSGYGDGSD
Procedure: as §2

ROS1 (G2032R) = ROS1 (G2032R) (Homo sapiens (Human), UniProt P08922, G2032R); experiment: Radio-tagged HotSpot kinase assay, ROS1 (G2032R)
Chain of ROS1 (G2032R) (P08922 28-2347 G2032R): as the sequence (P08922 28-2347) above, with G2005R counted along it
Procedure: as §2

TRKB = TRKB (Homo sapiens (Human), UniProt Q16620); experiment: Radio-tagged HotSpot kinase assay, TRKB; assay type: biochemical; conditions: 33P-ATP, 120 min, room temperature
Chain of TRKB (Q16620 32-822): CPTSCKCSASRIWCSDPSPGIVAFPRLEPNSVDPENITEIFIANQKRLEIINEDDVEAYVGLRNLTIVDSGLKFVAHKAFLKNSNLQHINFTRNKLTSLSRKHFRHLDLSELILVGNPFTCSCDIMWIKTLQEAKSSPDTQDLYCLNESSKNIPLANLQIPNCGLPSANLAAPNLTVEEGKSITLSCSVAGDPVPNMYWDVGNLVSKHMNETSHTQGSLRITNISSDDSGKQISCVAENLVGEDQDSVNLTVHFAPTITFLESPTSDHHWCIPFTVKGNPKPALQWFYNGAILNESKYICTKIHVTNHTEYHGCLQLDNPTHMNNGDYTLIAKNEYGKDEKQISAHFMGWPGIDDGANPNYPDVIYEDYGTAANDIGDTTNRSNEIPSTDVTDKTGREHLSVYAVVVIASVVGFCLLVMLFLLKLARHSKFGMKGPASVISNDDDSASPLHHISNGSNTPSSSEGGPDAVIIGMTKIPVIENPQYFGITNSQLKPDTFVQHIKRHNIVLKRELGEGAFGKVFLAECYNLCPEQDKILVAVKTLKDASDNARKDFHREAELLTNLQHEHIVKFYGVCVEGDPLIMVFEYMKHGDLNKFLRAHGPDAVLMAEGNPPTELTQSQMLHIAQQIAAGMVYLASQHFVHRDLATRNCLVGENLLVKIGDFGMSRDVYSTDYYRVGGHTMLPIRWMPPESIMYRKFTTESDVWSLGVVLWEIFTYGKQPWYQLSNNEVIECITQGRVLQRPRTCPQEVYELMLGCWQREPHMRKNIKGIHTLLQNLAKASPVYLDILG
Procedure: as §2

TRKA = TRKA (Homo sapiens (Human), UniProt P04629); experiment: Radio-tagged HotSpot kinase assay, TRKA;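 note: kinase activity measured through incorporation of 33P from labelled ATP into substrate, 120 min at room temperature, relative to a DMSO-only blank control, reported as inhibition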
Chain of TRKA (P04629 33-796): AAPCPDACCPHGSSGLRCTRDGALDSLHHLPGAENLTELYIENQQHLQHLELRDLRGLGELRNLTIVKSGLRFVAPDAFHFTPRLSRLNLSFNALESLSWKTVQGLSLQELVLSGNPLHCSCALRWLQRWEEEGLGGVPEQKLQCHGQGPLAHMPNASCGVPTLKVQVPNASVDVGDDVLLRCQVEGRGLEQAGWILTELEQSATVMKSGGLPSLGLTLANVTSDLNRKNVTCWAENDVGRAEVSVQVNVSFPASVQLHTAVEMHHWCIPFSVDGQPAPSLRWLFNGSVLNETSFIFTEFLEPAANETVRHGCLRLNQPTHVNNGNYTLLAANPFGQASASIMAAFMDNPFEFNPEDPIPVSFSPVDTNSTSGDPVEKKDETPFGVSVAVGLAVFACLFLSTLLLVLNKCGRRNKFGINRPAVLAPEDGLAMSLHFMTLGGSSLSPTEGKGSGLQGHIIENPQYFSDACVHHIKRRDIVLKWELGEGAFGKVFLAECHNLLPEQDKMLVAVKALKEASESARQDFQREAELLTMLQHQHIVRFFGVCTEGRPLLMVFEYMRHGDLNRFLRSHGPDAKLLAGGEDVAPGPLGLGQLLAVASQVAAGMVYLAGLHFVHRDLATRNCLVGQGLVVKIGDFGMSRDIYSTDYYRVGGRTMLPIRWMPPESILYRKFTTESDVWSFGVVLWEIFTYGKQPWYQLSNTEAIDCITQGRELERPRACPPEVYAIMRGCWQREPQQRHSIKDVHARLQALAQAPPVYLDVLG
Procedure: as §2

TRKA (G595R) = TRKA (G595R) (Homo sapiens (Human), UniProt P04629, G595R); experiment: Radio-tagged HotSpot kinase assay, TRKA (G595R)
Chain of TRKA (G595R) (P04629 33-796 G595R): as the sequence (P04629 33-796) above, with G563R counted along it
Procedure: as §2

ALK (G1202R) = ALK (G1202R) (Homo sapiens (Human), UniProt Q9UM73, G1202R); experiment: Radio-tagged HotSpot kinase assay, ALK (G1202R); assay type: biochemical; conditions: 33P-ATP, 120 min, room temperature
Procedure: as §2

TRKA (G677C) = TRKA (G677C) (Homo sapiens, UniProt P04629, G667C); experiment: Radio-tagged HotSpot kinase assay, TRKA (G677C); assay type: biochemical; conditions: 33P-ATP, 120 min, room temperature
Chain of TRKA (G677C) (P04629 33-796 G667C limits assumed): as the sequence (P04629 33-796) above, with G635C counted along it
Procedure: as §2

ALK = ALK (Homo sapiens (Human), UniProt Q9UM73); experiment: Radio-tagged HotSpot kinase assay, ALK; assay type: biochemical; conditions: 33P-ATP, 120 min, room temperature
Procedure: as §2

[1] = read-out: ROS1 (IC50/nM), 33P-ATP, 120 min, room temperature
[2] = read-out: ROS1 (G2032R) (IC50/nM), 33P-ATP, 120 min, room temperature
[3] = read-out: TRKA (IC50/nM), 33P-ATP, 120 min, room temperature
[4] = read-out: TRKA (G595R) (IC50/nM), 33P-ATP, 120 min, room temperature

Row | IC50 (Ba/F3-CD74-ROS1) [nM] | IC50 (Ba/F3-LMNA-NTRK1-G595R) [nM] | IC50 (Ba/F3-CD74-ROS1-G2032R) [nM] | IC50 (Ba/F3-LMNA-NTRK1) [nM] | IC50 (TRKC) [nM] | IC50 (TRKB) [nM] | IC50 (TRKA) [nM] | Compound | other results
1 | 8.4 | 30.1 | 81.1 | 18.2 |  |  |  | C[C@@H](Nc1ccn2ncc(C3=NOC(C)(C)N3)c2n1)c1cc(F)cc2ccccc12 [Example 53] | 
2 | 4.9 | 8.6 | 34.8 | 3.8 |  |  |  | C[C@@H](Nc1ccn2ncc(C3=NOC(C)(C)N3)c2n1)c1cc(F)cnc1OCC(F)(F)F [Example 15] | 
3 |  | 113 |  |  |  |  |  | COc1c(F)ccc(F)c1[C@@H](C)Nc1ccn2ncc(C3=NOC(C)(C)N3)c2n1 [Example 2] | 
4 |  |  |  |  | < 0.5 | < 0.5 |  | CCCCC1NC(c2cnn3ccc(N[C@H](C)c4cc(F)ccc4O)nc23)=NO1 (some centres unmarked) [Example 69] | IC50 (ROS1; [1]): < 0.5 nM; IC50 (ROS1 (G2032R); [2]): < 0.5 nM; IC50 (TRKA; [3]): < 0.5 nM; IC50 (TRKA (G595R); [4]): < 0.5 nM
5 |  |  |  |  | 0.5 to 5 | 0.5 to 5 | 0.5 to 5 | C[C@@H](Nc1ccn2ncc(C3=NOC(C)(C)N3)c2n1)c1c(Cl)ccc(F)c1Cl [Example 14] | IC50 (ALK (G1202R)): 5 to 50 nM; IC50 (TRKA (G677C)): 5 to 50 nM; IC50 (ROS1): 0.5 to 5 nM; IC50 (ROS1 (G2032R)): 0.5 to 5 nM; IC50 (TRKA (G595R)): 5 to 50 nM
6 |  |  |  |  | 0.5 to 5 | 0.5 to 5 | 0.5 to 5 | C[C@@H](Nc1ccn2ncc(C3=NOC(C)(C)N3)c2n1)c1cc(F)cc(F)c1 [Example 27] | IC50 (ROS1): 0.5 to 5 nM; IC50 (ALK): 5 to 50 nM
7 | 6.6 | 25.4 | 47.9 | 26.7 | < 0.5 | < 0.5 | 0.5 to 5 | COC(=O)N1CCC2(CC1)NC(c1cnn3ccc(N[C@H](C)c4cc(F)ccc4OC)nc13)=NO2 [Example 55] | IC50 (ROS1; [1]): < 0.5 nM; IC50 (ROS1 (G2032R); [2]): < 0.5 nM; IC50 (TRKA (G595R)): 0.5 to 5 nM
8 |  |  | 140 |  |  |  |  | CCCC1(C)NC(c2cnn3ccc(N[C@H](C)c4cc(F)ccc4OC)nc23)=NO1 (some centres unmarked) [Example 19] | 
9 |  |  |  |  |  |  |  | COc1ccc(F)cc1[C@@H](C)Nc1ccn2ncc(C3=NOC4(CCCCC4)N3)c2n1 [Example 45] | IC50 (TRKA (G677C)): 5 to 50 nM
10 | 15.7 | 386 | 120 | 25.9 |  |  |  | C[C@@H](Nc1ccn2ncc(C3=NOC(C)(C)N3)c2n1)c1cc(F)ccc1C(F)(F)F [Example 33] | 
11 |  | 387 |  |  |  |  |  | COc1ccc(OC)c([C@@H](C)Nc2ccn3ncc(C4=NOC(C)(C)N4)c3n2)c1 [Example 29] | 
12 |  |  |  |  | < 0.5 | < 0.5 |  | C[C@@H](Nc1ccn2ncc(C3=NOC(C)(C)N3)c2n1)c1cc(F)ccc1O [Example 68] | IC50 (ROS1; [1]): < 0.5 nM; IC50 (ROS1 (G2032R); [2]): < 0.5 nM; IC50 (TRKA; [3]): < 0.5 nM; IC50 (TRKA (G595R); [4]): < 0.5 nM
13 |  | 3.5 | 54.4 |  |  |  |  | C[C@@H](Nc1ccn2ncc(C3=NOC(C)(C)N3)c2n1)c1cccc(F)c1 [Example 31] | 
14 |  |  |  |  | 0.5 to 5 | 0.5 to 5 | 0.5 to 5 | Cc1ccc(F)cc1[C@@H](C)Nc1ccn2ncc(C3=NOC(C)(C)N3)c2n1 [Example 42] | IC50 (ROS1): 0.5 to 5 nM; IC50 (ALK): 5 to 50 nM
15 |  |  |  |  | 0.5 to 5 | 0.5 to 5 | 0.5 to 5 | C[C@@H](Nc1ccn2ncc(C3=NOC(C)(C)N3)c2n1)c1cc(F)ccc1Br [Example 23] | IC50 (ALK (G1202R)): 5 to 50 nM; IC50 (TRKA (G677C)): 5 to 50 nM; IC50 (ROS1): 0.5 to 5 nM; IC50 (ROS1 (G2032R)): 0.5 to 5 nM; IC50 (TRKA (G595R)): 5 to 50 nM
16 |  |  |  |  |  |  |  | COc1ccc(F)cc1[C@@H](C)Nc1ccn2ncc(C3=NOC(C)(c4ccc(F)cc4)N3)c2n1 (some centres unmarked) [Example 47] | IC50 (TRKA (G677C)): 50 to 500 nM
17 |  |  |  |  |  |  | 50 to 500 | COc1ccc(F)cc1[C@H](C)Nc1ccn2ncc(C3=NOC(C)(C)N3)c2n1 [Example 41] | 
18 |  |  | 43.6 |  |  |  |  | COc1ccc(F)cc1[C@@H](C)Nc1nc2c(C3=NOC(C)(C)N3)cnn2cc1F [Example 20] | 
19 | 5.2 | 12.5 | 45.9 | 5.1 |  |  |  | C[C@@H](Nc1ccn2ncc(C3=NOC(C)(C)N3)c2n1)c1cc(F)cc(F)c1F [Example 13] | 
20 | 6 | 2.8 | 43.7 | 2 |  |  |  | [2H]C([2H])([2H])Oc1ccc(F)cc1[C@@H](C)Nc1nc2c(C3=NOC(C)(C)N3)cnn2cc1F [Example 6] | 
